In one assay the test system is LPS-stimulated MoDC. The assay is described as follows: TLR4 stimulated pro-inflammatory cytokine release in primary human monocyte-derived dendritic cells. In kind it is cell-based. The settings on record: healthy human donors D14 and D15, dose response. An excerpt: Monocyte derived DC (MoDC) were differentiated from healthy human donor derived CD14+ monocytes. Commercially available freshly prepared Leukopaks were obtained from healthy blood donor and kept refrigerated on ice before spin centrifuged and the pelleted cells are rinsed and resuspended with MACS buffer (Miltenyi Biotec). Next, CD14+ monocytes were purified using MultiMACS™ Cell24 Separator-Plus instrumentation and reagents according to the manufacturer (Miltenyi Biotec) instructions. The resulting purified CD14+ cell fraction was washed, enumerated, and subsequently cryopreserved for later use. At the experiment first day cryopreserved CD14+ cells were thawed, rinsed with culture media, and then resuspended in culture media principally composed of RPMI (Invitrogen) supplemented with 10% v/v heat inactivated FBS. For generation of MoDC, these CD14+ cells were enumerated and seeded into 75 cm^2 tissue culture flasks in 30 mL of culture media supplemented with GM-CSF (40-100 ng/ml) and IL-4 (25 ng/ml). Every other day, half of the culture media was replaced with fresh media (containing the same cytokine supplementation) and after 6-7 days of culture, fully differentiated and mature MoDC were obtained as confirmed by conventional Immuno-phenotype markers (levels of expression or absence of surface CD80, CD83, CD86, CD209, HLA-DR, CD14 & CD64) that were verified by flow-cytometry. Fully differentiated (mature) MoDCs, were seeded into 96 flat-well plates and incubated with various concentrations of the compounds described herein, or with control solution (DMSO), or with the pharmacologic inhibitors Cyclosporin-A (CsA) or BAY 61-3606 (which is a known inhibitor of Syk kinase) for 6 hours. Next, the cells were stimulated with Toll-like receptor agonists R848 (TLR7/8) or LPS (TLR4), and further incubated for 18-20 hours. After incubation concluded, culture supernatants were collected, and the levels of inflammatory cytokines and chemokines were measured in a triplicate setting for each condition by Luminex® multiplex assay.

Assay [1] has as its system R848-driven NFκB reporter (SEAP) in THP-1 cells. The assay is described as follows: TLR7/8 (R848) stimulated NFκB reporter gene assay in THP1-Dual cells. The assay is classed as cell-based. The settings on record: Homo sapiens, THP-1, 10 μM compound, 1 μM R848, THP1-Dual cells; read-out: R848-driven NFκB reporter gene assay (Percent inhibition at 10 μM). The method, then:
Compounds described herein are added to the human leukemic monocyte-like cell line THP-1 for bioactivity assessment. THP1-Dual cells (InvivoGen, San Diego, CA) feature the Lucia gene, a secreted luciferase reporter gene, under the control of an ISG54 minimal promoter in conjunction with five IFN-stimulated response elements. THP1-Dual cells also express a secreted embryonic alkaline phosphatase (SEAP) reporter gene driven by an IFN-β minimal promoter fused to five copies of the NF-κB consensus transcriptional response element and three copies of the c-Rel binding site. As a result, THP1-Dual cells allow the simultaneous study of the NF-κB pathway, by monitoring the activity of SEAP, and the IRF pathway, by assessing the activity of Lucia luciferase.
THP-1 dual reporter cells were grown in RPMI 1640 culture medium with 2 mM L-glutamine, 25 mM HEPES, 10% heat-inactivated fetal bovine serum, 100 μg/ml Normocin antibiotic (InvivoGen), Pen-Strep antibiotic (100 U/ml-100 μg/ml, InvivoGen). On the day of the assay, cells were seeded in a 384 flat-bottom well plate at 25,000 cells/well and incubated for 2 hours. Cells were then incubated with 10 μM of the compounds described herein or with 1 μM of IKK-16 (Selleck), a potent inhibitor of IκB kinases (IKKs) or with DMSO (vehicle control) for 2 hours, followed by the addition of the synthetic TLR7/8 agonist R848 at 1 μM and incubation for 16 hours. After incubation was concluded, the cultures supernatants were collected and IRF related activity was assessed by measurement of the Lucia luciferase, using Quanti-Luc assay (InvivoGen). NF-κB pathway activity was assessed by quantifying SEAP using Quanti-Blue assay (InvivoGen).
A general note: A reporter such as luciferase makes a cellular process visible.

In the case of `CN1[C@@H](C(=O)O)CC[C@H]1[C@@H]1CSC(c2ccccc2O)=N1` [Compound I-4, (2R,5S)-5-((R)-2-(2-hydroxyphenyl)-4,5-dihydrothiazol-4-yl)-1-methylpyrrolidine-2-carboxylic acid], in the assay with LPS-stimulated MoDC, the IL-6 level result was “statistically significant decrease”, the IL-12p70 level result is “statistically significant decrease”, the IL-23 level entry is given as “statistically significant decrease” and the TNFα level entry was “statistically significant decrease”. The inhibition (usually the percentage by which the read-out fell short of the control) at 10 µM in assay [1] was at least 50%.
